Measurements from patent US20230265098A1, “ALKYNE QUINAZOLINE DERIVATIVES AS INHIBITORS OF ERBB2” (EnLiven Therapeutics, Inc., priority 2020, published 2023).
Counter-ions that a name gives are not always drawn.

Tests used:
[1] = biological target: T1, phosphorylated ERBB2 (pERBB2) (Homo sapiens, UniProt P04626); experiment: Detection of phosphorylated ERBB2 (pERBB2) by ELISA in BT-474 cells; format: cell-based; conditions: four hours incubation with compound, OD 450 nm
T1 construct: endogenous in cells; host or cells: BT-474
Procedure: BT-474 cells were seeded into a 96-well at 2.0*10^4 cells/100 μl/well.
Compounds were dissolved and serially diluted in DMSO. The compounds were then were added, mixed, and incubated for four hours at 37° C., 5% CO2. Compounds were added using four-fold dilutions at final concentrations ranging from 10 μM to 0.01 nM.
Following the four hour incubation with compounds, cell lysates were prepared. Plates were centrifuged for 5 min at 3000 RPM, and supernatant was removed from each well. Cells were washed 3 times by resuspension in 150 μl PBS, followed by centrifugation and removal of the supernatant, as above. […] Cells were incubated with lysis buffer for 1 hour at 4° C., and then stored at −80° C.
Enzyme-linked immunosorbent assays (ELISA) were performed to measure phosphorylated ERBB2 levels. […] The next day, plates were washed with PBS+0.05% Tween20 (PBST). 150 μl of 5% BSA blocking solution was added for 1 hour at room temperature, with shaking. Plates were washed with PBST. Cell lysates were thawed and 100 μl of lysate was added to the ELISA plate. The plates were incubated for 2 hours at room temperature, with shaking. […] Plates were incubated for 1 hour at room temperature, with shaking. Plates were then washed with PBST, and 100 μl TMB substrate solution (R&D Systems, cat #DY999) was added. Plate were incubated in the dark for 20 minutes at room temperature. 50 μl of Stop solution (R&D Systems, cat #DY994) (50 μl) was added to each well and mixed.
Optical density at 450 nm was read on an EnSpire plate reader (Perkin Elmer). The remaining kinase activity by calculated using the following formula: % Relative activity=100×(A450sample−A450LC)/(A450HC−A450LC). The low and high control values (“LC” and “HC”) were generated from lysate from wells without cells or with cells treated with 0.1% DMSO, respectively.

[2] = biological target: T2, phosphorylated EGFR (pEGFR) (Homo sapiens, UniProt P00533); experiment: Detection of phosphorylated EGFR (pEGFR) in EGF-stimulated A431 cells (AlphaLISA); format: cell-based; conditions: A431 cells (10% FBS), 4 hours with compound, then EGF 30 ng/mL for 10 minutes
T2 construct: endogenous in cells; host or cells: A431
Procedure: Enzyme-linked immunosorbent assays (ELISA) were performed to measure phosphorylated EGFR levels using A431 cells (10% FBS). A431 (1.0*10^4 cells/40 μl/well) cells were seeded in 384 well. Compounds were dissolved in DMSO, serially diluted in DMSO and then were added, mixed, and incubated for 4 hours at 37° C., 5% CO2. Following the 4-hours incubation, cells were stimulated for 10 minutes with EGF (Invitrogen, cat #PHG0311) at a final concentration of 30 ng/mL in the incubator. The media was aspirated and cells were lysed in 10 μL lysis buffer with protease and phosphatase inhibitors (PerkinElmer, cat #ALSU-PEGFR-A50K). The plates were placed on a shaker for 5 minutes and then incubated for 30 min at 4° C. for complete lysis. The lysate was transferred to an Optiplate (Perkin Elmer, cat #6007290).
Acceptor mix (PerkinElmer, cat #ALSU-PEGFR-A50K) was prepared just before use and 5 μL was dispensed to all the wells, followed by a 1.5-2 h incubation at room temperature in dark. The donor mix (PerkinElmer, cat #ALSU-PEGFR-A50K) was prepared under low light conditions prior to use and […] of donor mix was added to all the wells under subdued lighting or green filters. The plates were placed on a shaker for 5 min, sealed, and incubated overnight at room temperature in dark. Plates were read on the Envision (PerkinElmer) using standard AlphaLISA settings.
The percentage of inhibition on EGFR phosphorylation was calculated following equation: % Inhibition=100×(LumHC−LumSample)/(LumHC−LumLC). The low and high controls (LC/HC) are generated from lysate from wells with cells treated with DMSO or […] Staurosporine (BioAustralis, cat #BIA-S1086), […]. IC50 values were calculated by fitting the Curve using XLfit (v5.3.1.3), equation 201: Y=Bottom+(Top−Bottom)/(1+10^((LogIC50−X)*HillSlope)).

[3] = biological target: T3, Ba/F3 ERBB2 A775_G776insYVMA (Homo sapiens, UniProt P04626, DUP772-775, cells depend on it); experiment: Cell viability assay (CellTiter Glo); format: cell-based, mouse; conditions: 72 hours; 300 cells per well, 384-well plates (Table B5); read-out: Cell Line: Ba/F3 ERBB2 A775 G776ins YVMA IC50
T3 construct: Ba/F3 cell lines were engineered to express human ERBB2 or EGFR kinases, rendering the cells IL-3 independent
Procedure: Cells were treated with compounds, and cell viability was measured as a metric of kinase inhibition.
The Ba/F3 cell line is IL-3-dependent mouse cell line derived from the C3H mouse strain. Ba/F3 cell lines were engineered to express human ERBB2 or EGFR kinases, rendering the cells IL-3 independent. The lines were generated via retroviral transduction utilizing a Moloney murine leukemia virus (MMLV) promoter, and constructs are stably integrated into the cell genome.
Similarly, Ba/F3 cell lines engineered to express EGFR, ERBB2, or ERBB2 mutants were grown, harvested, counted and seeded at 3000 cells per well in 96-well plates for the data sets shown in Tables B3-B4, and seeded at 300 cells per well in 384-well plates for the data set shown in Table B5. A subset of wells contained media only (low control, “LC”).
Table B2 provides the growth media and number of cells seeded per well for the each cell line.
Compounds were dissolved in DMSO and serially diluted. Serially-diluted compound or a DMSO only control (high control, “HC”) was added to the plated cells in each well. […] The final proportion of DMSO never exceeded 0.1%.
Plates were placed in a 37° C., 5% CO2 incubator for 72 hours. Plates were then removed from the incubator and equilibrated for 15 minutes at room temperature. 40 IA of CellTiter Glo reagent (Promega) was added to measure the relative level of metabolically active cells by quantifying intracellular ATP concentrations. Plates were incubated for 30 minutes at room temperature, and luminescence was measured. Percent viability was normalized to a vehicle control only using the following formula: % viability=100×(LumSample−LumLC) (LumHC−LumLC). Graphical curves were fitted using a nonlinear regression model with a sigmoidal dose response.

T3 sequence (P04626 with tags, fused parts or gaps DUP772-775): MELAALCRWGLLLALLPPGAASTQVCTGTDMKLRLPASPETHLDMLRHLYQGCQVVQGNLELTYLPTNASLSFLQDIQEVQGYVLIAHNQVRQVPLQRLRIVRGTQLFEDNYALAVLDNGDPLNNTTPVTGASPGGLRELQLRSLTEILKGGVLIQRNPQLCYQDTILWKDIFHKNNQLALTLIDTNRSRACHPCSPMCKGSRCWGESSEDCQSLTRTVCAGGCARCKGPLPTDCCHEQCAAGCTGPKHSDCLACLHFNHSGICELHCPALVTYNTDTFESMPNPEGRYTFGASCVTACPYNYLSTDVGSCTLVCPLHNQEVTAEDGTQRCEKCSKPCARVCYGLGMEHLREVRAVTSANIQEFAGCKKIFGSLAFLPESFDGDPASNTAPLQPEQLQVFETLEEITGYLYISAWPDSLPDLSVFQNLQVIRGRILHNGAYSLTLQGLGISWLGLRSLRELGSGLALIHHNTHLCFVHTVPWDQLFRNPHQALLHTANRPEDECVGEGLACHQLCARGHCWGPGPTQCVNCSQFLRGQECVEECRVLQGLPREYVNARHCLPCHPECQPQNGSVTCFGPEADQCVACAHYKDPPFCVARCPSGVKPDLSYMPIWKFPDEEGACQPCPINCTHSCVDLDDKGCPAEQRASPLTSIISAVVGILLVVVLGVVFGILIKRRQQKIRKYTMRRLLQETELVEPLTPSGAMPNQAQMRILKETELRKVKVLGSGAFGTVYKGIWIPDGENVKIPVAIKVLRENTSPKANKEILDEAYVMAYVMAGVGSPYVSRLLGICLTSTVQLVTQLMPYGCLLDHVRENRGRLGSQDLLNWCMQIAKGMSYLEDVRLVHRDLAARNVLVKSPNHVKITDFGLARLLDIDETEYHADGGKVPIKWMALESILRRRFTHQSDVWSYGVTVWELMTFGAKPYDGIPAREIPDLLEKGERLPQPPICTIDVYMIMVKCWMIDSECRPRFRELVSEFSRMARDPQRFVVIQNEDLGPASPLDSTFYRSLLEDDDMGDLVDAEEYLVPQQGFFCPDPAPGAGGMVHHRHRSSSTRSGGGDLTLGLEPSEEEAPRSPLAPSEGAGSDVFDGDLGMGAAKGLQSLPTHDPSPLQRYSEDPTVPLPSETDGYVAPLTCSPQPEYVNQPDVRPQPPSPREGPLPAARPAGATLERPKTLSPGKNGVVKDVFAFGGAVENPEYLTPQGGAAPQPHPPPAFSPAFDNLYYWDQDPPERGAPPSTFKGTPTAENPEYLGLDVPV
T2 sequence (P00533 25-1210): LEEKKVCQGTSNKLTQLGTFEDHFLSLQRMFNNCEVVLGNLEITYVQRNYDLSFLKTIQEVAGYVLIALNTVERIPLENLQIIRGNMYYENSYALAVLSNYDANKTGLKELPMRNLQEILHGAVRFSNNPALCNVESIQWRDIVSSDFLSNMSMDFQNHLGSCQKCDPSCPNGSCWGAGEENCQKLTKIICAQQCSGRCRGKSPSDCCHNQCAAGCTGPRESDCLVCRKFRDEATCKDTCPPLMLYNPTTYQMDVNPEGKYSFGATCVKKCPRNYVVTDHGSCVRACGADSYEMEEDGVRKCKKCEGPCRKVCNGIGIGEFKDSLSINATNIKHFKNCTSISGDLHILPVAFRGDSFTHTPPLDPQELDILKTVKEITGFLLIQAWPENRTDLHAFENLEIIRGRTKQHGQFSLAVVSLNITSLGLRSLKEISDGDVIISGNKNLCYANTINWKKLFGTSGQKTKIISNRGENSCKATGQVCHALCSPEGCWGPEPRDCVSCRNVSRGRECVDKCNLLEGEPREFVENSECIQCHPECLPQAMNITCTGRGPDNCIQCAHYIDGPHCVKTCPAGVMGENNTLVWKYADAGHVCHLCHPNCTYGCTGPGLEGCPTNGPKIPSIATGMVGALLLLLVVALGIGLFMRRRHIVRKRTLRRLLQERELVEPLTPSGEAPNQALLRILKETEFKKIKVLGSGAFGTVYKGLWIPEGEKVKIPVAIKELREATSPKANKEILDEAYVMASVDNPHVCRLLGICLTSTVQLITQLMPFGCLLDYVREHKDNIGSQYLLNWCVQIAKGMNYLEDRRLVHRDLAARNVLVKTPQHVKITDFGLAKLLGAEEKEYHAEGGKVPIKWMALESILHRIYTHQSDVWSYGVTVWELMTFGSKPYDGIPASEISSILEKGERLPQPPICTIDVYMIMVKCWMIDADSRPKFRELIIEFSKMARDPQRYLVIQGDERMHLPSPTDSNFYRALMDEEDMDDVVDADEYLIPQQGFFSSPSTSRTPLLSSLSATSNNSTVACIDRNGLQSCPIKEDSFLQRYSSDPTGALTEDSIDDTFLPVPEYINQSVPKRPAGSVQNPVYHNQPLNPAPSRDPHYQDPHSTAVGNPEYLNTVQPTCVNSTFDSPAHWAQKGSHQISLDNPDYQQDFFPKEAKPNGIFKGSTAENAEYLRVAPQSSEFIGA
T1 sequence (P04626 23-1255): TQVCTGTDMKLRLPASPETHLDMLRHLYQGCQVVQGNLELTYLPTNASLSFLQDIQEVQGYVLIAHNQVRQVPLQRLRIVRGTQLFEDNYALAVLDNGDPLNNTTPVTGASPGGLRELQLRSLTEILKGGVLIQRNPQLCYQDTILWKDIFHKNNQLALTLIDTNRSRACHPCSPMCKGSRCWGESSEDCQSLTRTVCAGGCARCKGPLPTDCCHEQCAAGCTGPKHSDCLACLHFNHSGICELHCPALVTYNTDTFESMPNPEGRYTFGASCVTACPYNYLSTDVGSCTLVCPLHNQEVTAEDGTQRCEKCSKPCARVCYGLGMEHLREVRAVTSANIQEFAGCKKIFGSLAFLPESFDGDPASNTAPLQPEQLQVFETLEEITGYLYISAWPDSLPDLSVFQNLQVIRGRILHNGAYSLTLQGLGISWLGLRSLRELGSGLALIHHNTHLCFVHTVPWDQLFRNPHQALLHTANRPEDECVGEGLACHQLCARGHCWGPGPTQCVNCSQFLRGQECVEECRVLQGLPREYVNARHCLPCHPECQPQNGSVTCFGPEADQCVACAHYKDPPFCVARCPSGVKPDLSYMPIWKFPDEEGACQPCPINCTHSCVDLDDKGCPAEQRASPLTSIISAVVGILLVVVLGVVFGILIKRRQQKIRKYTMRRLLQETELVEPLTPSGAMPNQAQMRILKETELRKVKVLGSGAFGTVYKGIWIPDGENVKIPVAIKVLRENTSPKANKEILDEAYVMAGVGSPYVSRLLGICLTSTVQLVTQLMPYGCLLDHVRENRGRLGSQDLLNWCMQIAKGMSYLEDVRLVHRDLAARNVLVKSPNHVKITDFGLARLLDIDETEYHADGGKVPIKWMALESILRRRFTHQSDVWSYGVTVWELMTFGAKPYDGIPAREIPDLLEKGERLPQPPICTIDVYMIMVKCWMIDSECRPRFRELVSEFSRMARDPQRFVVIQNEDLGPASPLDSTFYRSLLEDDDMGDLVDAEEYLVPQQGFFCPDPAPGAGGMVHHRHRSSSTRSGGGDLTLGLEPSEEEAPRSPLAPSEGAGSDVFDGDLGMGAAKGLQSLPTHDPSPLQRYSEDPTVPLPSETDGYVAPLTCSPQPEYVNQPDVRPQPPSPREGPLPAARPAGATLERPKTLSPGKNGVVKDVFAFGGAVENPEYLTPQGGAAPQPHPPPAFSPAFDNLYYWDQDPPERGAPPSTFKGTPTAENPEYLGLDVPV

Compound	IC50 [1]	IC50 [2]	GI50 [3]
Cc1cc(Nc2ncnc3cc(OCCN(C)C)c(NC(=O)C#CC4CC4)cc23)ccc1Oc1ccn2ncnc2c1 [Compound 170, 3-cyclopropyl-N-{7-[2-(dimethylamino)ethoxy]-4-[(3-methyl-4-{[1,2,4]triazolo[1,5-a]pyridin-7-yloxy}phenyl)amino]quinazolin-6-yl}prop-2-ynamide hydrochloride]	14 nM	418 nM	
Cc1c(Oc2ccn3ncnc3c2)ccc(Nc2ncnc3cc(OCCN(C)C)c(NC(=O)C#CC4CC4)cc23)c1F [Compound 179, N-(4-((4-([1,2,4]triazolo[1,5-a]pyridin-7-yloxy)-2-fluoro-3-methylphenyl)amino)-7-(2-(dimethylamino)ethoxy)quinazolin-6-yl)-3-cyclopropylpropiolamide]	121 nM	2550 nM	
CC#CC(=O)Nc1cc2c(Nc3ccc(Oc4ccn5ncnc5c4)c(C)c3F)ncnc2cc1OCCN(C)C [Compound 180, N-(4-((4-([1,2,4]triazolo[1,5-a]pyridin-7-yloxy)-2-fluoro-3-methylphenyl)amino)-7-(2-(dimethylamino)ethoxy)quinazolin-6-yl)but-2-ynamide]	23.4 nM	1590 nM	
Cc1cc(Nc2ncnc3cc(OCCN(C)C)c(NC(=O)C#CC4CC4)cc23)c(F)cc1Oc1ccn2ncnc2c1 [Compound 181, N-(4-(4-([1,2,4]triazolo[1,5-a]pyridin-7-yloxy)-2-fluoro-5-methylphenylamino)-7-(2-(dimethylamino)ethoxy)quinazolin-6-yl)-3-cyclopropylpropiolamide formate]	22.8 nM	971 nM	
CC#CC(=O)Nc1cc2c(Nc3cc(C)c(Oc4ccn5ncnc5c4)cc3F)ncnc2cc1OCCN(C)C [Compound 182, N-{7-[2-(dimethylamino)ethoxy]-4-[(2-fluoro-5-methyl-4-{[1,2,4]triazolo[1,5-a]pyridin-7-yloxy}phenyl)amino]quinazolin-6-yl}but-2-ynamide]	13.2 nM	1490 nM	
Cc1cc(Nc2ncnc3ccc(NC(=O)C#CC4(C)CC4)cc23)ccc1Oc1ccn2ncnc2c1 [Compound 185, N-{4-[(3-methyl-4-{[1,2,4]triazolo[1,5-a]pyridin-7-yloxy}phenyl)amino]quinazolin-6-yl}-3-(1-methylcyclopropyl)prop-2-ynamide]	17.3 nM	680 nM	5.11 nM
CC#CC(=O)Nc1cc2c(Nc3ccc(Oc4ccc(C)nc4)c(C)c3)ncnc2cc1OCCN(C)C [Compound 186, N-{7-[2-(dimethylamino)ethoxy]-4-({3-methyl-4-[(6-methylpyridin-3-yl)oxy]phenyl}amino)quinazolin-6-yl}but-2-ynamide]	16.1 nM	74.5 nM	
CNCCOc1cc2ncnc(Nc3ccc(Oc4ccn5ncnc5c4)c(C)c3)c2cc1NC(=O)C#CC1CC1 [Compound 187, 3-cyclopropyl-N-{4-[(3-methyl-4-{[1,2,4]triazolo[1,5-a]pyridin-7-yloxy}phenyl)amino]-7-[2-(methylamino)ethoxy]quinazolin-6-yl}prop-2-ynamide]	30.5 nM	434 nM	19.6 nM
Cc1cc(Nc2ncnc3ccc(NC(=O)C#CC4CC4)cc23)ccc1Oc1ccc([C@@H](F)CF)nc1 [Compound 188, (R)-3-cyclopropyl-N-(4-((4-((6-(1,2-difluoroethyl)pyridin-3-yl)oxy)-3-methylphenyl)amino)quinazolin-6-yl)propiolamide]	78 nM	297 nM	
CC#CC(=O)Nc1cc2c(Nc3ccc(Cc4ccn5ncnc5c4)c(C)c3)ncnc2cc1OCCCN(C)C [Compound 189, N-{7-[3-(dimethylamino)propoxy]-4-[(3-methyl-4-{[1,2,4]triazolo[1,5-a]pyridin-7-ylmethyl}phenyl)amino]quinazolin-6-yl}but-2-ynamide]	1.87 nM	106 nM	2.47 nM
Cc1cc(Nc2ncnc3cc(OCCN(C)C)c(NC(=O)C#CC4(C)CC4)cc23)ccc1Oc1ccn2ncnc2c1 [Compound 190, N-{7-[2-(dimethylamino)ethoxy]-4-[(3-methyl-4-{[1,2,4]triazolo[1,5-a]pyridin-7-yloxy}phenyl)amino]quinazolin-6-yl}-3-(1-methylcyclopropyl)prop-2-ynamide]	24.9 nM	1220 nM	34.5 nM
Cc1cc(Nc2ncnc3cc(OCCN(C)C)c(NC(=O)C#CC(C)(C)C)cc23)ccc1Oc1ccn2ncnc2c1 [Compound 191, N-{7-[2-(dimethylamino)ethoxy]-4-[(3-methyl-4-{[1,2,4]triazolo[1,5-a]pyridin-7-yloxy}phenyl)amino]quinazolin-6-yl}-4,4-dimethylpent-2-ynamide]	93.2 nM	> 10000 nM	177 nM
CC#CC(=O)Nc1cc2c(Nc3ccc(Oc4ccn5ncnc5c4)c(C)c3)ncnc2cc1OCCN1CCCC1 [Compound 192, N-{4-[(3-methyl-4-{[1,2,4]triazolo[1,5-a]pyridin-7-yloxy}phenyl)amino]-7-[2-(pyrrolidin-1-yl)ethoxy]quinazolin-6-yl}but-2-ynamide]	9.51 nM	1350 nM	11 nM
CC#CC(=O)Nc1cc2c(Nc3ccc(Oc4ccn5ncnc5c4)c(Cl)c3F)ncnc2cc1OCCN(C)C [Compound 193, N-(4-((4-([1,2,4]triazolo[1,5-a]pyridin-7-yloxy)-3-chloro-2-fluorophenyl)amino)-7-(2-(dimethylamino)ethoxy)quinazolin-6-yl)but-2-ynamide]	13.8 nM	658 nM	9.32 nM
CC#CC(=O)Nc1cc2c(Nc3cc(Cl)c(Oc4ccn5ncnc5c4)cc3F)ncnc2cc1OCCN(C)C [Compound 197, N-(4-((4-([1,2,4]triazolo[1,5-a]pyridin-7-yloxy)-5-chloro-2-fluorophenyl)amino)-7-(2-(dimethylamino)ethoxy)quinazolin-6-yl)but-2-ynamide]	11.4 nM	555 nM	
